From patent US6875748B2, “Compositions and methods for in vivo delivery of polynucleotide-based therapeutics” (Vical Incorporated, priority 2000, dated 2005)
Where “and” joins values, the source holds several entries; their conditions need not be identical. Equal entries are not always repeated. Where two headings read alike, the source gives them in different places.

Experiments:
[1] = system: tibialis anterior muscles of nude mice; experiment: Serum SEAP after injection of plasmid VR3301 into tibialis anterior muscles of nude mice; assay type: in vivo, mouse
Protocol: Briefly, tissues were rapidly collected and frozen, they were combined with and frozen into a lysis buffer, the tissue was then pulverized with a drill bit run in reverse direction, the resulting powder was thawed, and was extracted two times with extraction buffer. Nude mice were injected with VR3301 DNA bilaterally on three consecutive days for a total of 300 μg DNA per mouse.
Sera from nude mice injected with VR3301 were collected at various times post-injection. […] Samples were assayed in duplicate. Plates were sealed, incubated at 65° C. for 30 min and spun for 5 min at 4000 rpm at room temperature. […] The samples were analyzed using a Molecular Devices Opti Max plate reader (Sunnyvale, Calif.). The plate reader was pre-warmed to 37° C. and a standard kinetic program was used to assay the samples at a wavelength of 405 nm for 30 min.
The mice were monitored over time for blood levels of SEAP or proinsulin or for hematocrits. In the case of SEAP, plasmid DNA was injected into the tibialis anterior muscles, and nude mice were used to prevent an immune response to the foreign transgene product.
The mice were monitored for blood levels of SEAP at day 7 post-injection. Plasmid DNA was injected into the tibialis anterior muscles, and nude mice were used to prevent an immune response to the foreign transgene product.

[2] = system: mouse quadriceps muscle; experiment: Luciferase expression in mouse quadriceps muscle after i.m. injection of plasmid VR1255 with auxiliary agents; conditions: day 7; for increase of luciferase expression in 154 mM sodium chloride: 0.01% agent in saline versus saline alone
[3] = system: β-galactosidase
[4] = system: rectus femoris muscle; conditions: for cats with elevated hematocrit: no agent
Description: Two milliliters of DNA were delivered as 1-ml injections into each rectus femoris muscle. Following injection, cats were monitored at 7 day intervals for serum hematocrit levels, which correlate with the expression of erythropoeitin.

[5] = system: mouse quadriceps muscle; experiment: Hematocrit after i.m. injection of mouse erythropoietin plasmid (VR2901, VR2996); assay type: in vivo
Protocol: Hematocrits were measured by centrifugation of blood obtained from the retro-orbital cavity of mice. Blood samples were collected in 75 μl heparinized capillary tubes and analyzed using HemaSTAT II microhematocrit centrifuge (Separation Technology, Inc., Altamonte Springs, Fla.).
The mice were monitored over time for serum hematocrit levels, which correlate with the expression of erythropoeitin.
The mice were monitored over four weeks for serum hematocrit levels, which correlate with the expression of erythropoeitin.
The mice were monitored at days 0, 7, 14, 21, and 28 for serum hematocrit levels, which correlate with the expression of erythropoeitin.
The mice were monitored at days 7, 14, and 28 for serum hematocrit levels, which correlate with the expression of erythropoeitin. Control serum levels were measured before any injections.

[6] = system: influenza nucleoprotein; conditions: 5 μg VR4700 days 0 and 21, 6 weeks
[7] = Osmolarity of the salt solutions; assay type: physicochemical; conditions: for Osm: 150 mM unless otherwise indicated
[8] = system: mouse quadriceps muscle; experiment: β-galactosidase-stained muscle fibers after i.m. injection of plasmid VR1412; assay type: in vivo; conditions: 50 μg VR1412, day 7, n=10
Protocol: For whole muscle staining, quadriceps were fixed for 3 hours at room temperature in 2% paraformaldehyde in PBS, washed 3 times for 20 min each in PBS and incubated for 18 hours at 37° C. in a solution containing 2 mM MgCl2, 5 mM potassium ferricferrocyanide and 1 mg/ml 5-bromo-4-chloro-3-indoyl-β-D-galactosidase (available from Life Technologies, Inc. (LTI), Gaithersberg, Md.) in PBS. After incubation, the muscles were washed 3 times for 10 min each in 3% dimethyl sulfoxide in PBS and stored in PBS at 4° C. until analysis. […] Sections were collected on 1% gelatin coated glass slides, brought to room temperature and stained for 2 hours at 37° C. in the same reagent as for whole mounts above except that the beta-galactosidase reagent concentration was 200 μg/ml. The sections were then counterstained with Harris hematoxylin in acetic acid, rinsed in tap water, dehydrated and mounted in Permount (Fisher, Fair Lawn, N.J.).
Individual muscle cells were examined for β-galactosidase expression as follows.
Whole quadriceps muscle groups were harvested on day 7. Muscles were snap frozen in OTC medium (n=10 muscles for each group). 10 micron cross-sections were stained with x-gal (substrate for β-gal). Fibers expressing β-gal (stained blue) were counted.

[9] = system: mouse lung; experiment: Luciferase expression in mouse lung 3 days after intranasal instillation of VR1223 complexed with GAP-DLRIE/DOPE; assay type: in vivo; conditions: day 3; for luciferase expression in lung: 132 μg VR1223 + GAP-DLRIE/DOPE
[10] = system: mouse quadriceps muscle; experiment: Serum human IFN-ω after i.m. injection of plasmid VR4151; assay type: in vivo; conditions: for serum IFN-ω levels: 50 μg VR4151, day 7
Protocol: (§1) Muscle extracts were assayed for β-galactosidase and the serum was assayed for circulating levels of IFN-ω.

[11] = system: mouse quadriceps muscle; experiment: β-galactosidase expression in mouse quadriceps muscle after i.m. injection of plasmid VR1418; conditions: for β-galactosidase in muscle: 10 μg VR1418, day 7
Protocol: The luciferase content of the samples was calculated from Relative Light Units using a standard curve of purified firefly luciferase (Analytical Luminescence Laboratory, San Diego, Calif.; Cat. No. 2400), which was diluted in pooled extract from uninjected muscles to control for quenching. Luciferase values were expressed as ng luciferase per muscle. […] A standard curve, prepared in pooled extract from uninjected muscles, was included on each plate using the β-galactosidase enzyme standard included in the kit.
as §1
Quadriceps muscles were injected with 50 μl of each solution containing 10 μg of plasmid VR1418, and the muscles were tested for 7-day expression levels.

[12] = pH of the salt solutions; assay type: physicochemical
[13] = system: influenza nucleoprotein; conditions: 9 weeks post-vaccination, versus saline
[14] = system: B16F10 tumor cells; experiment: Anti-tumor effect of i.m. mIFN-α plasmid VR4111 in mice bearing subcutaneous B16F10 tumors; assay type: in vivo, mouse; conditions: for tumor volume: 27 days, VR4111; for survival versus blank DNA in saline: p<0.007, Kaplan-Meier
[15] = system: mouse quadriceps muscle; experiment: Luciferase expression in mouse quadriceps muscle 7 days after i.m. injection of plasmid VR1223 in salt solutions; assay type: in vivo; set-up: lux: unit: ng/muscle; conditions: for ng luciferase per muscle / ng Lux/Muscle: 50 μg VR1223 in 50 μl; for ng luciferase per muscle / ng Lux/Muscle / luciferase in muscle / Fold Saline / ng Lux per Muscle: day 7; for luciferase in muscle: Example 4, run in parallel; for lux: 7-day luciferase expression, VR1223; for ng luciferase/muscle: average of all 9 experiments; for ng lux/muscle: reproducibility; for ng Lux per Muscle: 50 μg VR1223 in 50 μl of the solution
[16] = listed as 150 mM sodium phosphate
[17] = 150 mM unless otherwise indicated
[18] = salts at 150 mM, relative to saline
[19] = 150 mM solutions, VR1223, day 7

Compound: octyl phenol ethylene oxide condensate with about 9-10 ethylene oxide units [Triton X-100]
- SEAP expression with 100 μg DNA plus agent versus 300 μg DNA in 150 mM sodium phosphate alone ([1]; day 7): nearly equivalent
- SEAP expression, fold compared with sodium phosphate alone ([1]; day 7): 1.7 fold
- SEAP expression, fold compared with 150 mM sodium phosphate alone ([1]; day 35): 2 fold
- increase of luciferase expression in 154 mM sodium chloride [2]: six-fold
- mice with anti-β-galactosidase antibody ([3]; 10 μg VR1412, four weeks): three of the five
- mice with anti-β-galactosidase antibody ([3]; 10 μg VR1412, ten weeks): four of the five
- period of elevated hematocrit ([4]; group 4): > 40 days

Compound: octylphenoxypolyethoxyethanol [NONIDET NP-40]
- hematocrit versus 150 mM sodium phosphate alone ([5]; 5 μg VR2901, 0.01% agent, all time points): higher hematocrit levels
- rise in hematocrit ([5]; 5 μg VR2901, after day 14): 10%
- increase of luciferase expression in 154 mM sodium chloride [2]: three-fold

Compound: O=P(O)(O)O [Sodium Phosphate]
- serum anti-NP antibody titers [6]: enhanced serum anti-NP antibody titers compared with saline solution
- Osm ([7]; listed as 50 mM Sodium Phosphate): 83 mmol/kg
- Osm ([7]; listed as 100 mM Sodium Phosphate): 232 mmol/kg
- Osm ([7]; listed as 150 mM Sodium Phosphate): 308 mmol/kg
- osmolarity ([7]; listed as 50 mM sodium phosphate): 83 mmol/kg
- osmolarity ([7]; listed as 100 mM sodium phosphate): 270 mmol/kg
- osmolarity [7, 16]: 310 mmol/kg
- hematocrit versus plasmid DNA in saline ([5]; 10 μg or 2.5 μg VR2901, four weeks): higher hematocrit levels
- β-galactosidase-positive myofiber cells [8]: 186+/−43 myofiber cells/muscle section
- luciferase expression in lung ([9]; listed as 2.5 mM sodium phosphate): 5.2 ng lux/lung
- luciferase expression in lung [9, 16]: 0.22 ng lux/lung
- luciferase expression in lung compared with water [9]: enhanced compared with water, but not as much as with 2.5 mM sodium phosphate
- luciferase expression in lung, fold compared with water [9]: 5.5 fold
- serum IFN-ω levels [10]: 0.35 ng ml serum
- serum IFN-ω levels, fold over saline ([10]; day 7): 2.5 fold
- β-galactosidase in muscle [11]: 9.8 ng/muscle
- optimal molar concentration for β-galactosidase expression ([11]; 10 μg VR1418, day 7, data not shown): 150 mM
- β-galactosidase in muscle, fold over saline ([11]; day 7): 3.3 fold
- pH [12, 17]: 7.2
- pH ([12]; 150 mM unless otherwise indicated, listed as 50 mM Sodium Phosphate): 7.2
- pH ([12]; 150 mM unless otherwise indicated, listed as 100 mM Sodium Phosphate): 7.2
- pH ([12]; 150 mM unless otherwise indicated, listed as 150 mM Sodium Phosphate): 7.2
- anti-NP specific CTL activity [13]: statistically similar
- Average μg luciferase muscle ([2]; 50 μg VR1255 in 50 μl 150 mM sodium phosphate with added agents): 0.37 µg
- mice with anti-β-galactosidase antibody ([3]; 10 μg VR1412, four weeks): none of the mice
- mice with anti-β-galactosidase antibody ([3]; 10 μg VR1412, two weeks): none of the mice
- tumor volume [14]: 955 mm^3
- tumor growth versus blank DNA controls ([14]; VR4111 100 μg i.m., up to 22 days): lower rate of tumor growth
- survival versus blank DNA in saline [14]: statistically significant survival difference
- mice surviving ([14]; to day 41, VR4111): 4 out of 10
- cats with elevated hematocrit ([4]; group 3, 1 mg/ml DNA): one cat
- cats with elevated hematocrit ([4]; groups 1 and 2, 5 and 3 mg/ml DNA): No cats
- ng luciferase per muscle [15]: 386 ng luciferase per muscle
- ng Lux/Muscle ([15]; salts at 150 mM): 481 ng/Muscle
- luciferase expression compared with saline (words) ([15]; 80 mM, 100 mM, 150 mM and 200 mM sodium phosphate, p<0.05): significantly higher than saline
- luciferase in muscle, fold over saline ([15]; Example 4, day 7): 4.8 fold
- luciferase in muscle [15]: 769 ng/muscle
- enhancement over saline ([15]; Exp. #1 (highest)): 7.3 fold
- enhancement over saline ([15]; Exp. #9 (lowest)): 2.5 fold
- lux ([15]; Table III-A): 481
- lux ([15]; Table III-A, listed as 50 mM Sodium Phosphate): 254
- lux ([15]; Table III-A, listed as 100 mM Sodium Phosphate): 270
- lux ([15]; Table III-A, listed as 150 mM Sodium Phosphate): 481
- lux ([15]; Table III-B, listed as 50 mM Sodium Phosphate): 254
- lux ([15]; Table III-B, listed as 100 mM Sodium Phosphate): 270
- lux ([15]; Table III-B, listed as 150 mM Sodium Phosphate): 481
- luciferase expression, fold over saline ([15]; VR1223, day 7, listed as 50 mM sodium phosphate): 2.1 fold
- luciferase expression, fold over saline ([15]; VR1223, day 7, listed as 100 mM sodium phosphate): 2.3 fold
- luciferase expression, fold over saline ([15]; VR1223, day 7, listed as 150 mM sodium phosphate): 4.3 fold and 4 fold
- average enhancement over saline ([15]; all 9 experiments): 4.1 fold
- ng luciferase/muscle [15]: 490 ng luciferase/muscle
- ng lux/muscle ([15]; Exp. #1): 362 ng lux/muscle
- ng lux/muscle ([15]; Exp. #9): 384 ng lux/muscle
- Fold Saline [15, 18]: 4.0 Fold
- luciferase expression compared with saline (words) ([15]; sodium phosphate below 40 mM or above 300 mM): equal to or lower than those seen with saline

Compound: [Cl-].[Na+] [Sodium Chloride, reference compound]
- Osm ([7]; listed as 100 mM NaCl): 215 mmol/kg
- Osm ([7]; listed as 150 mM NaCl (Saline)): 310 mmol/kg
- osmolarity ([7]; listed as saline): 310 mmol/kg and 308 mmol/kg
- β-galactosidase-positive myofiber cells [8]: 108+/−21 myofiber cells/muscle section
- luciferase expression in lung [9]: 0.14 ng lux/lung
- serum IFN-ω levels [10]: 0.14 ng ml serum
- β-galactosidase in muscle [11]: 3.0 ng/muscle
- pH [12]: 5.5
- pH [12, 17]: 5.5
- tumor volume [14]: 2069 mm^3
- survival versus blank DNA in saline [14]: statistically significant survival difference
- mice surviving ([14]; to day 38, VR4111): 2 out of 10
- ng Lux per Muscle ([15]; listed as 100 mM Sodium Chloride): 112 ng per Muscle
- ng Lux per Muscle ([15]; listed as 150 mM Sodium Chloride (saline)): 119 ng per Muscle
- ng luciferase per muscle ([15]; listed as 100 mM NaCl): 112 ng luciferase per muscle
- ng luciferase per muscle ([15]; listed as saline): 119 ng luciferase per muscle and 89 ng luciferase per muscle
- ng Lux/Muscle ([15]; salts at 150 mM): 119 ng/Muscle
- luciferase in muscle [15]: 159 ng/muscle
- lux ([15]; Table III-A): 119
- lux ([15]; Table III-A, listed as 100 mM NaCl): 112
- lux ([15]; Table III-A, listed as 150 mM NaCl (Saline)): 119
- lux ([15]; Table III-B, listed as 100 mM NaCl): 112
- lux ([15]; Table III-B, listed as 150 mM NaCl (Saline)): 119
- ng luciferase/muscle [15]: 120 ng luciferase/muscle
- Fold Saline ([15]; luciferase expression relative to saline, listed as 100 mM Sodium Chloride): 0.9 Fold
- Fold Saline ([15]; luciferase expression relative to saline, listed as 150 mM Sodium Chloride (saline)): 1.0 Fold
- ng lux/muscle ([15]; Exp. #1): 49 ng lux/muscle
- ng lux/muscle ([15]; Exp. #9): 156 ng lux/muscle
- Fold Saline [15, 18]: 1.0 Fold

Compound: O=C([O-])O.[Na+] [Sodium Bicarbonate]
- Osm [7]: 727 mmol/kg
- pH [12]: 9.0
- pH [12, 17]: 9.0
- ng Lux/Muscle ([15]; salts at 150 mM): 330 ng/Muscle
- luciferase expression compared with saline (words) [15, 19]: increased luciferase expression compared with saline
- lux ([15]; Table III-A): 330
- lux ([15]; Table III-B): 330
- luciferase expression, fold over saline ([15]; VR1223, day 7): 2.8 fold
- Fold Saline [15, 18]: 2.8 Fold

Compound: O=C([O-])C(=O)[O-].[Na+].[Na+] [Sodium Oxalate]
- Osm [7]: 346 mmol/kg
- pH [12, 17]: 6.5
- ng Lux/Muscle ([15]; salts at 150 mM): 15 ng/Muscle
- luciferase expression compared with saline (words) [15, 19]: inhibited luciferase expression
- luciferase expression compared with saline (words) ([15]; 150 mM solutions, VR1223, day 7, listed as 150 mM sodium oxalate): no ability to enhance
- lux ([15]; Table III-A): 15
- lux ([15]; Table III-B): 15
- Fold Saline [15, 18]: <0.1 Fold

Compound: O [Double-distilled water, reference compound]
- luciferase expression in lung [9]: 0.94 ng lux/lung
- ng Lux per Muscle [15]: 4 ng per Muscle
- ng luciferase per muscle [15]: 4 ng luciferase per muscle
- luciferase expression, times lower than saline ([15]; VR1223, day 7): 25 times
- Fold Saline ([15]; luciferase expression relative to saline): 0.03 Fold
